# Reference: US4866161A, “Inhibition of tartar deposition by polyanionic/hydrophobic peptides and derivatives thereof which have a clustered block copolymer structure” (University of South Alabama, priority 1987, dated 1989)
# Like-named read-outs stand apart in the source and are kept apart here. Ends that are not written are not given here.
# Experiments:
# [1] = pH-drift assay, calcium carbonate
# Description: A solution supersaturated with respect to CaCO03 is prepared by separately pipetting 0.3 ml of 1.0 M CaCl2 dihydrate and 0.6 ml of 0.5 M NaHCO3 into 29.1 ml of artificial seawater (0.5 NaCl, 0.011 M KCl). The reaction vessel is a 50 ml, 3-necked, round-bottom flask partially immersed in a thermostated water bath at 20° C. The reaction vessel is closed to the atmosphere to minimize exchange of CO2 The reaction is started by adjusting the pH upward to 8.3 by titration of μl amounts of 1 N NaOH by digital pipette. The initial concentrations are 10 mM each of Ca^2+ and dissolved inorganic carbon (DIC). The reaction is monitored by pH electrode and recorded by strip chart.
# The reaction may be quantified by calculations based on DIC equilibria to give the amount of precipitation versus time.
# The conditions of the assay were […] dissolved inorganic carbon at 20° C. and 30 ml of artificial seawater (0.5 M NaCl, 0.01 M KCl).
# [2] = pH-drift assay, calcium phosphate
# Description: A solution supersaturated with respect to calcium phosphate is prepared by separately pipetting 0.1 ml of 1.32 M CaCl2 dihydrate and 0.1 ml of 0.90 M NaHl PO4 into 29.8 ml of distilled water. This yields initial concentrations of 4.4 mM Ca^2+ and 3.0 mM dissolved inorganic phosphorus (DIP). The reaction vessel is a 50 ml, round-bottom, 3-necked flask partially immersed in a thermostated water bath at 20° C. The reaction vessel is closed to the atmosphere. The reaction begins upon mixing the reactants with an initial pH of 7.4.
# Amorphous calcium phosphate (ACP) nucleates immediately and slowly grows as indicated by a slight decrease in pH during the first 30 minutes or so of the assay. Following this, ACP begins to transform to calcium hydroxylapatite (HAP), Ca10 (PO4)6 (OH)2, as indicated by a marked acceleration in the downward pH drift. The reaction ceases as reactants are depleted and the pH is lowered.
# ^1 Assay Conditions: Ca at 4.4 mM, dissolved inorganic phosphorus at […]
# [3] = constant composition assay, CaCO3; details: FIG. 5, pH 8.30 held constant, 20° C., doses matched for about 2 hours stabilization
# Description: A 50 ml solution of 10 mM CaCl2 and 10 mM dissolved inorganic carbon (DIC) was adjusted to pH 8.34 by digital pipetting of μl amounts of 1 N NaOH. The temperature was held constant at 20° C. using a water-jacketed reaction vessel and a thermostated bath. After about a 6 minute period during which CaCO3 nucleation occurs, the pH beings to drift downward as Ca^2+ and CO3^2- ions are removed from solution as solid crystals. At pH 8.30, inhibitors were added which stabilized the pH drift for certain periods of time. The concentrations of inhibitors used in the experiments shown in FIG. 5 were matched so that the amount of stabilization or inhibition of nucleation was the same, in this case about 2 hours. The doses required for this effect ranged between 0.1 to 0.5 μg/ml of inhibitor depending on the type When crystallization began again, the pH would drift downward. However, it was held constant at pH 8.30±0.02 by automatic titration of 0.5 M CaCl2 and 0.5 M NaCO3 from separate burettes linked via the pH electrode to a computer-assisted titrimeter.
# [4] = inhibitor 37 μg/ml; adapted from Hay et al. 1979; cited from earlier work
compound,measurement,setting,value
GDGDGDGDGDGDGDGDGDGD [H--(GLY--ASP)10 --OH],CRYSTAL GROWTH RATE,[1]; peptide 0.1 μg/ml,0.047 ± 0.0097 pH/MIN
same,INDUCTION PERIOD,[1]; peptide 0.1 μg/ml,36.0 ± 5.20 min
"AAAAAAGDGDGDGDGDGDGD [H--(ALA)6 --(GLY-13 ASP)7 --OH, poly (Asp-Gly)7 (Ala)6]","inhibition of crystal nucleation (duration of induction period), in words","[1]; FIG. 6, equal doses, artificial seawater, 20° C.",very little activity relative to the control curve
same,CRYSTAL GROWTH RATE,[1]; peptide 0.20 μg/ml,0.048 ± 0.0042 pH/MIN
same,INDUCTION PERIOD,[1]; peptide 0.20 μg/ml,7.2 ± 0.83 min
GSDGSDGSDGSDGSDGSDGSD [H--(GLY--SER--ASP)7 --OH],CRYSTAL GROWTH RATE,[1]; peptide 0.1 μg/ml,0.057 ± 0.0034 pH/MIN
same,INDUCTION PERIOD,[1]; peptide 0.1 μg/ml,5.83 ± 1.04 min
"DDDDDDDDDDDDDDDDDDDD [H--(ASP)20--OH, poly (Asp)20]",CRYSTAL GROWTH RATE,[1]; peptide 0.02 μg/ml,0.047 ± 0.0030 pH/MIN
same,INDUCTION PERIOD,[1]; peptide 0.02 μg/ml,21.5 ± 0.50 min
same,CRYSTAL GROWTH RATE,[1]; peptide 0.035 μg/ml,0.041 ± 0.0050 pH/MIN
same,INDUCTION PERIOD,[1]; peptide 0.035 μg/ml,39.2 ± 10.8 min
same,INDUCTION PERIOD,[1]; peptide 0.050 μg/ml,> 180 min
"O=P(O)(O)CN(CCN(CP(=O)(O)O)CP(=O)(O)O)CCN(CP(=O)(O)O)CP(=O)(O)O [DENTPP, diethylene triamine pentamethylene phosphonic acid]",PERIOD OF ACP FORMATION,[2]; inhibitor 5 μg/ml,100 min
same,"pH/min, ACP FORMATION",[2]; inhibitor 5 μg/ml,0.0012 pH/min
same,"pH/min, APATITE FORMATION",[2]; inhibitor 5 μg/ml,0.019 pH/min
Polyaspartate [matrix analog],rate of crystallization after the period of stabilization,[3],not observed
"Polyaspartate [Polyaspartate, MW 15,000]","pH/min, ACP FORMATION",[2]; inhibitor 10 μg/ml,0.0040 pH/min
same,"pH/min, APATITE FORMATION",[2]; inhibitor 10 μg/ml,0.106 pH/min
same,PERIOD OF ACP FORMATION,"[2]; inhibitor 10 μg/ml, Ca 4.4 mM, DIP 3.0 mM, initial pH 7.40, 20° C.",30 min
same,PERIOD OF ACP FORMATION,[2]; inhibitor 15 μg/ml,48 min
same,"pH/min, ACP FORMATION",[2]; inhibitor 15 μg/ml,0.0050 pH/min
same,"pH/min, APATITE FORMATION",[2]; inhibitor 15 μg/ml,0.070 pH/min
AAAAAAAAAADDDDDDDDDD [H--(Ala)10 --(Asp)10 --OH],"inhibitory activity on CaCO3 crystallization, comparison of Table 1 in words",[1]; Table 1,decreased activity
"Statherin: salivary protein, most effective inhibitor among salivary proteins that regulate mineral deposition in the oral cavity (DSSEEKFLRRIGRFGYGYGPYQPVPEQPLYPQPYQPQYQQYTF; UniProt P02808 20-62, looked up)",PERIOD OF ACP FORMATION,[4],48 min
same,"pH/min, ACP FORMATION",[4],0.0045 pH/min
same,"pH/min, APATITE FORMATION",[4],0.0090 pH/min
H--(ALA)10 (ASP)15 --OH,CRYSTAL GROWTH RATE,[1]; peptide 0.050 μg/ml,0.042 ± 0.0039 pH/MIN
same,INDUCTION PERIOD,[1]; peptide 0.050 μg/ml,32.0 ± 10.4 min
SDSDSDSDSDSDSDSDSDSD [H--(SER--ASP)10 --OH],CRYSTAL GROWTH RATE,[1]; peptide 0.1 μg/ml,0.048 ± 0.0040 pH/MIN
same,INDUCTION PERIOD,[1]; peptide 0.1 μg/ml,29.8 ± 4.99 min
